Experimental findings from paper PMC10669220, “In Vitro α-Glucosidase and α-Amylase Inhibition, Cytotoxicity and Free Radical Scavenging Profiling of the 6-Halogeno and Mixed 6,8-Dihalogenated 2-Aryl-4-methyl-1,2-dihydroquinazoline 3-Oxides” (Antioxidants, 2023) are described below.

For one data set, the target named is T1, human α-amylase (Homo sapiens, UniProt P04746).
T1 construct: purchased Abcam ab283391
T1 sequence (P04746 16-511): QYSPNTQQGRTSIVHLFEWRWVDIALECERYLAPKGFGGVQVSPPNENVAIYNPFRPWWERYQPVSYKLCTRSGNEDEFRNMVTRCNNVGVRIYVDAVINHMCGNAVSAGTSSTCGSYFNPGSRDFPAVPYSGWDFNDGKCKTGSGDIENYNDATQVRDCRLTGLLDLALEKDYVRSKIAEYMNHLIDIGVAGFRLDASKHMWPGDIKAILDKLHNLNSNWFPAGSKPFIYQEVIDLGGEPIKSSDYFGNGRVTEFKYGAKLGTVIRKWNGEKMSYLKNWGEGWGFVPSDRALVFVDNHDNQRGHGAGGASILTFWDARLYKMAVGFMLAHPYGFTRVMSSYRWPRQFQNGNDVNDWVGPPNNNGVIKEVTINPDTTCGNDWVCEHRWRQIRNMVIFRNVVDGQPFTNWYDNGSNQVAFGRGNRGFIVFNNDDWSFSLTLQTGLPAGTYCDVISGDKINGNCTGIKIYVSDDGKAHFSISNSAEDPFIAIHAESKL
The data set can be described thus: α-amylase inhibitor screening kit assay. The format is biochemical. As to conditions: mean ± SD, triplicate; tested at 1, 5, 10, 25, 50 µM. As for the experimental part:
The α-amylase assay was performed in triplicate, using a 96-well plate following the procedure recommended by the manufacturer as outlined in the α-amylase inhibitor Screening Kit (Catalogue No. ab283391; Abcam). […] The average values obtained from the absorbance readings were used to determine the IC50 and standard deviation values in GraphPad prism from nonlinear regression dose–response curves.

The target of data set [1] is T2, α-Glucosidase type 1 from baker's yeast (Saccharomyces cerevisiae, UniProt P53341).
T2 construct: purchased Sigma Aldrich (Pty) Ltd. G5003
T2 sequence (P53341 whole entry): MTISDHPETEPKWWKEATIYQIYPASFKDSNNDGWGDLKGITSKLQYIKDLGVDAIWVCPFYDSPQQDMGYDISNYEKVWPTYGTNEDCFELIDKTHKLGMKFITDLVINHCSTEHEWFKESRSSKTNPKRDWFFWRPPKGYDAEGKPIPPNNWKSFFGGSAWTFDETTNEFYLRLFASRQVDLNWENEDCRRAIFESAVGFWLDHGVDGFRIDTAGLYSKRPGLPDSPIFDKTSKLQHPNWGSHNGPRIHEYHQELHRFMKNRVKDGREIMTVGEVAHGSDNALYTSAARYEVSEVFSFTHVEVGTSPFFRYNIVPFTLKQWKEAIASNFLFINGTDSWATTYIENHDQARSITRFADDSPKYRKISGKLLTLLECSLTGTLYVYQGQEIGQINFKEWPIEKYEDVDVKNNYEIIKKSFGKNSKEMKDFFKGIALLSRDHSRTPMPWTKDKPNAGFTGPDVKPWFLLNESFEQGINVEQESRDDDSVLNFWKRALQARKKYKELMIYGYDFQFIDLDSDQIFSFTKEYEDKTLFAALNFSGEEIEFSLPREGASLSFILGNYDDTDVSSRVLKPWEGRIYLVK
In words: biochemical. To be noted: IC50 α-Glucosidase, mean ± SD, triplicate; tested at 1, 5, 10, 25, 50 µM.

For data set [2], the system named is breast cancer (MCF-7) cell line. In words: MTT cytotoxicity assay, MCF-7. To be noted: for Cell viability percentage, MCF-7: Table S2. Background: Tetrazolium assays rely on reduction of a dye to a coloured formazan, in cell work by metabolically active cells.
Method: (§1) Cells were cultured in sterile Dulbecco’s Minimal Essential Medium (DMEM, Gibco) supplemented with 10% fetal bovine serum (FBS) and 1% penicillin-streptomycin solution. […] Cell counting was carried out using a handheld automated cell counter (Scapter 3.0™, Merck, Burlington, MA, USA) and seeded (1 × 10^4 cells/well) into a 96-well plate. After 24 h, the cells were treated with different concentrations (1, 5, 10, 25 and 50 µM) of the test compounds and reference standards prepared in DMEM. The MTT solution (20 μL) prepared in PBS (5 mg/mL) was added to all the wells, and the plates were incubated for 4 h, followed by 1 h incubation with 100 µL of dimethyl sulfoxide (DMSO) to dissolve the formazan crystals. Untreated cells and 5% DMSO were included in the experiment as negative controls. All experiments were performed in triplicate. The plates were read at 570 nm at a reference wavelength of 630 nm using an ELISA plate reader (Varioskan Flash, ThermoFisher Scientific, Vantaa, Finland). The percentage of cell viability was calculated using the following formula, Cell viability %=At/Ab×100 where At represents the absorbance value of test compound and Ab the absorbance value of the blank. […] The data were expressed as means ± SD.
The test system of data set [3] is lung cancer (A549) cell line. The data set can be described thus: MTT cytotoxicity assay, A549. To be noted: for Cell viability percentage, A549: Table S3.
Method: as §1
The nature of data set [4]: DPPH radical scavenging assay. As to conditions: mean ± SD; 45 min in the dark; 512 nm. The essentials:
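Compounds (0–50 µM, in DMSO) were mixed with 0.20 mM DPPH in methanol and kept in the dark for 45 min, with absorbance read at 512 nm. IC50 values were obtained by nonlinear regression of triplicate averaged readings.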
In general terms: The DPPH test is a chemical assay of radical scavenging.

Data set [5] deals with NO generated from nitric oxide synthase (NOS). The data set can be described thus: Inhibitory activity against NO generated from NOS (EnzyChrom kit). The format is biochemical. To be noted: mean ± SD, 1-50 µM.
A short description of data set [6]: MTT cytotoxicity assay, HEK293-T. To be noted: human, HEK293-T cells.
Method: as §1
In data set [7] the test system is human embryonic kidney (HEK293-T) cell line. In words: MTT cytotoxicity assay, HEK293-T. To be noted: Homo sapiens, HEK-293T, read-out: IC50 Hek293-T.
Method: as §1
Data set [8] addresses superoxide dismutase (SOD). In words: Superoxide dismutase (SOD) inhibitory assay (SOD assay kit-WST). The format is biochemical. As to conditions: duplicate; 1-50 µM; 25 °C, 30 min; read-out: IC50 SOD inhibition. As for the experimental part: The antioxidant activity of the compounds 3a, 3c, 3f, 3i, 3l, 3n and 3p against superoxide radicals was assessed via enzymatic assay in vitro using the SOD assay kit-WST according to the manufacturer’s instructions (Sigma-Aldrich®). The reaction mixtures in the SOD kit were combined with 20 μL of working solution of the samples in a 96-well plate. Plates were gently shaken and then incubated at 25 °C for 30 min. The reference positive control, diphenyleneiodonium (DPI), and the compounds were tested at 01, 5, 10, 25 and 50 µM in duplicates. The inhibition activity of SOD on the reaction of […] generated the superoxide with a tetrazolium salt, which was then determined by measuring the absorbance of the mixtures at a wavelength of 450 nm using an Elisa plate reader (Varioskan Flash, ThermoFisher Scientific, Vantaa, Finland). The SOD activity values obtained used to calculate the percentage of inhibition. % SOD activity=ODx− ODy/ODx ×100% where ODx is the absorbance of the blank (untreated SOD) and ODy is the absorbance of the sample (treated SOD). All tests were performed in duplicate.

By IC50 is commonly meant the midpoint of a concentration-inhibition curve. For orientation: viability means a read-out of living cells in per cent, often relative to untreated cells. The low end stands for a greater loss of cells, the high end for better survival. `CC1=[N+]([O-])C(c2ccccc2)Nc2c(I)cc(Br)cc21` (centres unmarked) [Compound 3i]: the IC50 on human α-amylase amounted to 1.18 ± 0.06 µM; in data set [1] it was 1.01 ± 0.05 µM; in data set [2] (Homo sapiens, MCF7, read-out: IC50 MCF-7) it was 15.43 ± 0.06 µM; in data set [3] (Homo sapiens, A549, read-out: IC50 A549), 16.85 ± 0.05 µM; in [4], 1.04 ± 0.077 µM; in data set [5], 29.08 ± 0.004 µM. Moreover, the figures for the IC50 in data set [7] and in [8] were 34.9 ± 0.13 µM and 15 ± 0.14 µM, respectively. Moreover, the “Cell viability percentage, MCF-7” value in data set [2] (Conc. 1 (µM per method)) was 24,1184%; in data set [2] (Conc. 5 (µM per method)), 22,006%; in data set [2] (Conc. 10 (µM per method)), 22,1058%; in [2] (Conc. 25 (µM per method)), 19,5775%; in data set [2] (Conc. 50 (µM per method)) it was 18,1803%. Also, the “Cell viability percentage, A549” value is 84,0927% in [3] (Conc. 1 (µM per method)); 69,8954% in data set [3] (Conc. 5 (µM per method)); 61,098% in data set [3] (Conc. 10 (µM per method)); 43,9195% in [3] (Conc. 25 (µM per method)); 23,0847% in data set [3] (Conc. 50 (µM per method)). The compound also gave a viability at 1 µM in data set [6] of 34.9%. The compound also registered a viability at 5 µM in data set [6] of 33.9%. The viability at 10 µM in data set [6] turned out to be 33.8%. Besides, in data set [6], the viability at 25 µM came to 29.8%. The same compound showed a viability at 50 µM in data set [6] of 26.9%.
